Results: patent publication US20190216815A1, “COMBINATION THERAPY COMPRISING A POLYUNSATURATED KETONE AND A FOLIC ACID PARTNER” (Avexxin AS, priority 2016, published 2019)

How the values were obtained:
Format in all cases: cell-based
[1] = test system: LPS-induced production of TNF in PBMC; test: LPS-induced TNF production in PBMC (ELISA); conditions: 1 μM MTX alone, 72 hours, 10 ng/mL LPS
Experimental: (§1) Blood was recruited from healthy donors at St. Olays Hospital HF, the Bloodbank. Peripheral blood mononuclear cells (PBMC) were isolated using SepMate™ separation tubes with LymphoPrep density gradient medium according to the STEMCELL Technology recommendations. For experiments, 1×10^6 cells/well/1 mL RPMI medium supplemented with 5% FBS, 0.3 mg/ml glutamine and 0.1 mg/ml gentamicin with or without inhibitors Compound A1, methotrexate hydrate (MTX) (Sigma-Aldrich, #A6770) or a combination of the two inhibitors, prior to the addition of lipopolysaccharides as a potent inducer of inflammation (LPS from E. coli 026:B6 γ-irradiated, Sigma-Aldrich, #L2654). Following treatment (72 hrs., 37° C., 5% CO2), the cell suspensions were centrifuged to isolate the supernatant from the cell fraction. Samples were stored at −80° C. until analysis.
(§2) Cell supernatant samples were analyzed by enzyme-linked immunosorbent assay (EIA) for PGE2 (Cayman #514010), TNF and IL1-β (RnD Systems, DuoSet #DY210 and #DY201) according to the manufacturers protocols. Cell supernatants were assayed at dilutions 1:1 for TNF; 1:10 for IL1-β and 1:100 for PGE2, except supernatants from untreated PBMC (negative control) that were assayed undiluted in all assays. Supernatants were hybridized over-night incubation, enzymatic conversion of substrate were read at OD420 nm. […]

HaCaT cells = test: Resazurin assay, HaCaT keratinocyte proliferation and viability; conditions: Homo sapiens, 10 μM MTX alone, 24 hours of treatment, read-out: reduction of proliferation and viability of HaCaT cells
Experimental: The spontaneously immortalized, nontumorigenic skin keratinocyte cell line HaCaT was maintained in DMEM supplemented with 5% (v/v) FBS, 0.3 mg/ml glutamine and 0.1 mg/ml gentamicin at 37° C. with 5% CO2 in a humidified atmosphere. Subculture using trypsin-EDTA was performed every 3-4 days with split ratio of 1:3-1:4 to ensure actively proliferating cells. Cells were seeded in 96 well plates in fully supplemented medium at a density of 2500 cells per well. Following 72 hours of cultivation, the cells were starved of serum in 0.25% FBS/DMEM overnight to halt proliferation, synchronize and to increase cell sensitivity to treatment. On day 4, the cells were treated with cPLA2α inhibitor Compound A1 and folic acid analogue methotrexate hydrate (MTX) (Sigma Aldrich #A6770) and left to incubate for […] in incubator at 37° C. with 5% CO2 in a humidified atmosphere before fluorescence was read at 544 nm excitation and 590 nm emission wavelength. The cells were observed under the microscope to evaluate possible morphology changes and signs of stress before addition of resazurin. The experiments were performed in series of 8 wells per treatment and repeated 2-3 times.

[2] = test system: LPS-induced IL-1b levels in PBMC; test: LPS-induced IL-1β production in PBMC (ELISA); conditions: 1 μM MTX alone, 72 hours, 10 ng/mL LPS
Experimental: as §1, §2

SMILES: CN(Cc1cnc2nc(N)nc(N)c2n1)c1ccc(C(=O)N[C@@H](CCC(=O)O)C(=O)O)cc1 [MTX, methotrexate hydrate]
- reduction of LPS-induced TNF levels [1]: ~20%
- cytotoxicity at 10 µM (HaCaT cells): ~15%
- reduction of LPS-induced IL-1b levels [2]: ~20%
